From patent US8420637B2, “Abnormal cannabidiols as agents for lowering intraocular pressure” (Allergan, Inc., priority 2006, dated 2013)

The compounds below were run on Laser-induced unilaterally ocular hypertensive Cynomolgus monkeys (assay: Intraocular pressure by applanation pneumatonometry in conscious animals). Conditions: topical to one eye, dosed once, IOP measured over the course of 24 hours; female ocular hypertensive Cynomolgus monkeys.
Type: in vivo
Set-up: key: *: one star indicates no potency; ***: three stars indicates a very potent compound
Description: Intraocular pressure was measured by applanation pneumatonometry in conscious animals. The test compound was administered topically to one eye while vehicle was given to the fellow eye in a masked fashion. Laser-induced unilaterally ocular hypertensive Cynomolgus monkeys (females) were dosed once and the IOP was measured over the course of 24 hours.
The results are shown in the Table, below wherein the stars indicating the potency of the compound. That is, one star indicates no potency, three stars indicates a very potent compound.
In the case of `Oc1cc(O)c(C2CCCCC2)c(Cl)c1` [9 (b), 5-Chloro-4-cyclohexylbenzene-1,3-diol], the Efficacy is reported as “***”. In the case of `C=C(C)C1CCC(C)=CC1c1c(O)cc(O)cc1Cl` (stereo not drawn) [Example 5, 5-Chloro-4-(6-Isopropenyl-3-methylcyclohex-2-enyl)benzene-1,3-diol], the Efficacy is reported as “***”. `CC1CC(=O)CC(=O)N1C1CCCCC1` (stereo not drawn) [Example 20, 1-Cyclohexyl-6-methylpiperidine-2,4-dione] was tested, and the Efficacy was “***”.
